Data as given in US20220251081A1, “HETEROBICYCLIC INHIBITORS OF MAT2A AND METHODS OF USE FOR TREATING CANCER” (priority 2019, published 2022).

Legend:
MAT2A homodimer = molecular target: T1, MAT2A homodimer (Homo sapiens, UniProt P31153); test: Biochemical assay: inhibition of recombinant MAT2A homodimer (phosphate release, PiColorLock Gold); conditions: MAT2A IC50 score; read-out: Enzyme Inhibition
T1 construct: inferred from Ni sepharose purification and imidazole elution; made in house; host or cells: Sf9 insect cells, recombinant baculovirus (Bac to Bac, pFASTBAC1 vector)
Procedure: Mat2A protein was expressed by recombinant baculovirus in SF9 infected cells using the Bac to Bac system cloned into the pFASTBAC1 vector (Invitrogen, Carlsbad, Calif.). Recombinant MAT2A was isolated from the cell lysate of 150 g of infected cells using HP Ni sepharose column chromatography. Recombinant MAT2A homodimer was eluted with 250 and 500 mM imidazole, and fractions containing MAT2A were identified by sodium dodecyl sulfate polyacrylamide gel electrophoresis and pooled.
For determination of the inhibitory potency of compounds against the MAT2A homodimer, protein was diluted to 4 μg/mL in assay buffer (50 mM Tris, pH 8.0, 50 mM KCl, 15 mM MgCl2, 0.3 mM EDTA, 0.005% [w/v] bovine serum albumin [BSA]). Test compound was prepared in 100% dimethyl sulfoxide (DMSO) at 50× the desired final concentration. A 1 μL volume of compound dilution was added to 40 μL of enzyme dilution and the mixture was allowed to equilibrate for 60 minutes at 25° C. The enzymatic assay was initiated by the addition of 10 μL of substrate mix (500 μM ATP, pH 7.0, 40 μM L-methionine in 1× assay buffer), and the mixture was incubated for a further 60 minutes at 25° C. The reaction was halted and the liberated phosphate released by the enzyme in stoichiometric amounts by the production of S-adenosyl methionine (SAM) was measured using the PiColorLock Gold kit (Innova Biosciences, UK). Absolute product amounts were determined by comparison to a standard curve of potassium phosphate buffer, pH 8.0.

[1] = system: SAM in HCT116 human colon carcinoma cell line with deleted MTAP gene; test: Cellular assay of target engagement (SAM): SAM level by LC-MS/MS after 72 hrs; format: cell-based; conditions: HCT-116, IC50 score, read-out: Cell 72 h SAM Inhibition (MTAP −/−)
Procedure: Cellular Assay of Target Engagement (SAM)
Measurement of MAT2A activity in cells was made by direct quantitation of the abundance of the product of its enzymatic activity, SAM. Cancer cells were treated with candidate MAT2A inhibitors for a suitable incubation period, and the cells were then lysed using a reagent which quenched any further enzyme activity. Soluble metabolites including SAM were collected and SAM itself was directly measured from the lysate using quantitative LC-MS/MS.
A typical assay was performed using an HCT116 human colon carcinoma cell line which was genetically engineered to delete the MTAP gene (commercially available from Horizon Discovery). This cell line was utilized because it was determined that loss of the MTAP gene predicts sensitivity to MAT2A inhibitors. Cells were plated in 96-well dishes at appropriate cell density. Following 24 hours, cells were then treated with the candidate MAT2A inhibitor. Prior to addition to cells, the compound was first serially diluted in 100% DMSO, typically as a 3-fold serial dilution starting at 500× top dose with 10 dose points including DMSO only control. Compound was then transferred to a working stock plate in cell culture media by adding 5 μL of compound in DMSO to 495 μL of cell culture media. This working stock was then added to cells via a further 5-fold dilution, by adding 25 μL of working stock to 100 μL of cells in culture media. Following compound addition, cells were incubated at 37° C./5% CO2 for 72 hrs.
To quantitate SAM levels following compound treatment, cells were gently washed once in ammonium carbonate buffer (75 mM at pH 7.4), placed on dry ice, and lysed with metabolite extraction buffer (80% cold methanol and 20% water (v/v) with acetic acid at 1M final concentration with 200 ng/mL deuterated d3-SAM as internal control). Following centrifugation at 4° C. at 3,200 rpm for 30 minutes, the supernatant was collected and stored at −80° C. until analysis by Liquid Chromatography with tandem Mass Spectrometry (LC-MS/MS). LC-MS/MS analysis was performed using an API6500 Mass Spectrometer (Sciex, Framingham, Mass., USA) operating in positive ion spray mode and equipped with a Waters UPLC Acquity (Waters, Milford, Mass., USA) BEH Amide column. Multiple Reaction Monitoring data was acquired for SAM and the d3-SAM standard, using a mass transition pair at m/z 399.2→250.1 and 402.2→250.1, respectively. In a typical LC-MS/MS analysis, the initial flow rate was 0.5 ml/min of 25% mobile phase A (acetonitrile and water at 5:95 (v/v) with 1% formic acid and 10 mM ammonium acetate) and 75% mobile phase B (acetonitrile and water at 95:5 (v/v) with 1% formic acid and 10 mM ammonium acetate), 0.2-0.5 minutes with 75%-35% mobile phase B, 25%-65% mobile phase A, at 0.5 min 65% mobile phase A and 35% mobile phase B, 1.0-1.1 minutes with 35%-75% mobile phase B, 65%-25% mobile phase A, at 1.1 min 25% mobile phase A and 75% mobile phase B with a total run time of 1.5 minutes.

HCT116 MTAP-/- = test: Inhibition of cellular proliferation, 4 days, Cell Titer Glo, HCT116 MTAP-/-; format: cell-based; conditions: Homo sapiens, HCT-116, 96 h, IC50 score, read-out: 4 Day Relative Growth Inhibition (MTAP −/−)
Procedure: (§1) Assay for Inhibition of Cellular Proliferation
(§2) Test compound impact on cancer cell growth was assessed by treating cancer cells with compound for 4 days and then measuring proliferation using an ATP-based cell proliferation readout (Cell Titer Glo, Promega Corporation).
(§3) In a typical assay an isogenic pair of HCT116 human colon carcinoma cell lines which vary only in MTAP deletion status (HCT116 MTAP +/+ and HCT116 MTAP−/−) were plated in 96-well dishes at appropriate cell density. Following 24 hours, cells were then treated with the candidate MAT2A inhibitor. Prior to addition to cells, the compound was first serially diluted in 100% DMSO, typically as a 3-fold serial dilution starting at 500× top dose with 10 dose points including DMSO only control. Compound was then transferred to a working stock plate in cell culture media by adding 5 μL of compound in DMSO to 495 μL of cell culture media. This working stock was then added to cells via a further 5-fold dilution, by adding 25 μL of working stock to 100 μL of cells in culture media. Following compound addition, cells were incubated at 37° C./5% C02 for 4 days.
(§4) To measure inhibition of cellular proliferation, cells were allowed to equilibrate to room temperature for 30 minutes, and were then treated with 125 μL of Cell Titer Glo reagent. The plate was then covered with aluminum foil and shaken for 15 minutes to ensure complete mixing and full cell lysis. Luminescent signal was then measured using a plate-based luminometer Veritas version 1.9.2 using ATP standard curve to confirm assay reproducibility from run to run. This luminescence measure was converted to a proliferation index by subtracting from each data point the ATP luminescence signal measured from a bank (no cells) well and dividing by the ATP luminescence signal measured in 0.2% DMSO control well adjusted for signal in blank well. Compound activity was then represented as a percentage change in proliferation relative to a within-plate DMSO control against log 10 of compound concentration in molar (M) units.

HCT116 MTAP +/+ = test: Inhibition of cellular proliferation, 4 days, Cell Titer Glo, HCT116 MTAP+/+; format: cell-based; conditions: Homo sapiens, HCT-116, 96 h, IC50 score, read-out: 4 Day Relative Growth Inhibition (MTAP +/+)
Procedure: as §1, §2, §3, §4

T1 sequence (P31153 whole entry): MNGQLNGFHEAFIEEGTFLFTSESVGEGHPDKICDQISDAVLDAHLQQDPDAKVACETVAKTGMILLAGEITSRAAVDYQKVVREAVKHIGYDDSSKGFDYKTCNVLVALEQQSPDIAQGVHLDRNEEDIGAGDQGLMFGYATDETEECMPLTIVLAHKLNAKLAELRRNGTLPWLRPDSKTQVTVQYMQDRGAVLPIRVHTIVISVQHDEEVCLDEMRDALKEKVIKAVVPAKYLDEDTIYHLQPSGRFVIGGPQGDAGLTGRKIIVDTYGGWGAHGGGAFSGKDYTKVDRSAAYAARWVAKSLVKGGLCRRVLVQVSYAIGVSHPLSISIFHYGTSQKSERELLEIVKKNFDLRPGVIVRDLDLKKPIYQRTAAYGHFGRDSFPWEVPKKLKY

Structure (SMILES)	IC50 (MAT2A homodimer)	IC50 [1]	IC50 (HCT116 MTAP-/-)	IC50 (HCT116 MTAP +/+)
COc1ccc(-c2cc3cnc(NCC(F)(F)F)nc3n(-c3ccc(-c4nc[nH]n4)cc3)c2=O)cc1 [Example 101, 8-(4-(1H-1,2,4-triazol-3-yl)phenyl)-6-(4-methoxyphenyl)-2-(2,2,2-trifluoroethylamino)pyrido[2,3-d]pyrimidin-7(8H)-one]	< 100 nM	< 100 nM	100 to 1000 nM	≥ 1000 nM
COc1ccc(-c2cc3cnc(NCC(F)(F)F)nc3n(-c3ccc(O)cc3)c2=O)cc1 [Example 106]	100 to 1000 nM	100 to 1000 nM	100 to 1000 nM	≥ 1000 nM
COc1ccc(-c2cc3cnc(NCC(F)(F)F)nc3n(-c3ccc(OC)cc3)c2=O)cc1 [Example 115]	< 100 nM	< 100 nM	100 to 1000 nM	≥ 1000 nM
COc1ccc(-n2c(=O)c(-c3ccc4ncccc4c3)cc3cnc(NCC(F)(F)F)nc32)cc1 [Example 116]	< 100 nM	< 100 nM	< 100 nM	≥ 1000 nM
COc1ccc(-c2cc3cnc(NCC(F)(F)F)nc3n(-c3ccc(C4CC4)cc3)c2=O)cc1 [Example 118]	< 100 nM	< 100 nM	< 100 nM	≥ 1000 nM
Cn1cc2cc(-c3cc4ccc(OCC(F)(F)F)nc4n(-c4ccc(Cl)cc4)c3=O)ccc2n1 [Example 119, 1-(4-chlorophenyl)-3-(2-methyl-2H-indazol-5-yl)-7-(2,2,2-trifluoroethoxy)-1,8-naphthyridin-2(1H)-one]	< 100 nM	< 100 nM	< 100 nM	≥ 1000 nM
Cn1cc2cc(-c3cc4ccc(NCC(F)(F)F)nc4n(-c4ccc(OC(F)F)cc4)c3=O)ccc2n1 [Example 120]	< 100 nM	< 100 nM	< 100 nM	≥ 1000 nM
Cn1cc2cc(-c3cc4ccc(OC5CC5)nc4n(-c4ccc(Cl)cc4)c3=O)ccc2n1 [Example 121]	< 100 nM	< 100 nM	< 100 nM	≥ 1000 nM
Cn1cc2cc(-c3cc4ccc(OCC(F)F)nc4n(-c4ccc(Cl)cc4)c3=O)ccc2n1 [Example 122]	< 100 nM	< 100 nM	< 100 nM	100 to 1000 nM
COc1ccc(-n2c(=O)c(-c3ccc4nn(C)cc4c3)cc3ccc(OCC(F)(F)F)nc32)cn1 [Example 123]	< 100 nM	< 100 nM	< 100 nM	≥ 1000 nM
COc1ccc(-n2c(=O)c(-c3ccc4nn(C)cc4c3)cc3ccc(OCC(F)F)nc32)cn1 [Example 124]	< 100 nM	< 100 nM	< 100 nM	100 to 1000 nM
COc1ccc(-c2cc3cnc(NCC(F)(F)F)nc3n(-c3ccc(OC(F)F)cc3)c2=O)cc1 [Example 127]	< 100 nM	< 100 nM	100 to 1000 nM	≥ 1000 nM

Further lines, results first:

IC50 (MAT2A homodimer)	IC50 [1]	IC50 (HCT116 MTAP-/-)	IC50 (HCT116 MTAP +/+)	Structure (SMILES)
< 100 nM	< 100 nM	< 100 nM	≥ 1000 nM	COc1ccc(-c2cc3cnc(NCC(F)(F)F)nc3n(-c3ccc(CCO)cc3)c2=O)cc1 [Example 129]
< 100 nM	< 100 nM	100 to 1000 nM	≥ 1000 nM	COc1ccc(-c2cc3ccc(NCC(F)(F)F)nc3n(-c3ccc(OC(F)F)cc3)c2=O)cc1 [Example 130, 1-(4-(difluoromethoxy)phenyl)-3-(4-methoxyphenyl)-7-(2,2,2-trifluoroethylamino)-1,8-naphthyridin-2(1H)-one]
< 100 nM	< 100 nM	< 100 nM	≥ 1000 nM	COc1ccc(-c2cc3ccc(NCC(F)(F)F)nc3n(-c3ccc(OC)cc3)c2=O)cc1 [Example 131]
< 100 nM	< 100 nM	< 100 nM	≥ 1000 nM	Cn1cnc2ccc(-c3cc4ccc(NCC(F)(F)F)nc4n(-c4ccc(OC(F)F)cc4)c3=O)cc21 [Example 135]
< 100 nM	< 100 nM	< 100 nM	100 to 1000 nM	CCOc1ccc2cc(-c3ccc4nn(C)cc4c3)c(=O)n(-c3ccc(Cl)cc3)c2n1 [Example 138]
< 100 nM	< 100 nM	100 to 1000 nM	≥ 1000 nM	CCOc1ccc2cc(-c3ccc(OC)cc3)c(=O)n(-c3ccc(OC(F)F)cc3)c2n1 [Example 139]
< 100 nM	< 100 nM	< 100 nM	100 to 1000 nM	CCOc1ccc2cc(-c3ccc4nn(C)cc4c3)c(=O)n(-c3ccc(OC(F)F)cc3)c2n1 [Example 140]
< 100 nM	< 100 nM	< 100 nM	≥ 1000 nM	CCOc1ccc2cc(-c3ccc4nn(C)cc4c3)c(=O)n(-c3ccc(OC)cc3)c2n1 [Example 142]
< 100 nM	< 100 nM	< 100 nM	100 to 1000 nM	CCOc1ccc2cc(-c3ccc4nn(C)cc4c3)c(=O)n(-c3ccc(NC)nc3)c2n1 [Example 144]
< 100 nM	< 100 nM	< 100 nM	≥ 1000 nM	CCNc1ccc(-n2c(=O)c(-c3ccc4nn(C)cc4c3)cc3ccc(OCC)nc32)cn1 [Example 145]
< 100 nM	< 100 nM	< 100 nM	–	CCOc1ccc2cc(-c3ccc4nncn4c3)c(=O)n(-c3ccc(C4CC4)nc3)c2n1 [Example 215]
< 100 nM	< 100 nM	–	–	[2H]C([2H])([2H])Oc1ccc(-n2c(=O)c(-c3ccc4nn(C)cc4c3)cc3ccc(O[C@H](C)C(F)(F)F)nc32)cc1 [Example 304]
